Here are results for 23 substances from patent publication US20060079453A1, “Hla binding peptides and their uses” (priority 2002, published 2006).

Read-outs that look alike come from different tables or passages of the source. No end group written: not given here.

Targets include HLA-DR DRB1*1501 (DR15) (Homo sapiens, UniProt P01903+P01911); HLA-DR DRB5*0101 (DR51) (Homo sapiens, UniProt P01903+Q30154); HLA-DR DRB1*1101 (DR11) (Homo sapiens, UniProt P01903+P01911, A100R/A169T/A87E/I96F/K41T/L162R/M171V/P40S/Q125H/Q178H/Q39Y/Q99D/R42S/S66Y/T262R/V115G/W38E); HLA-DR DRB4*0101 (DR53) (Homo sapiens, UniProt P01903+P13762, G164S); HLA-DR DRB1*1302 (DR13) (Homo sapiens, UniProt P01903+P01911, A100E/A169T/K41T/L162R/M171V/P40S/Q125H/Q178H/Q39Y/Q99D/R42S/S66N/T262R/V115G/W38E/Y61H); HLA-DR DRB1*0401 (DR4) (Homo sapiens, UniProt P01903+P01911, A100K/A169T/F76Y/I96L/K127E/L162R/M171V/N62H/P40V/Q125Y/R42H/S133A/S149N/S66Y/V115G/V209L/W38E); HLA-DR DRB1*0101 (DR1) (Homo sapiens, UniProt P01903+P01911, A100R/D57E/F55L/F60I/F76Y/I96L/L162R/M171V/P40L/Q125E/R42F/V115G/Y59C); HLA-DR DRB1*0701 (DR7) (Homo sapiens, UniProt P01903+P01911, A100R/A102G/A103Q/D57E/D86V/E43K/F76Y/K127E/L162R/M171V/P40G/Q125H/Q99D/R33Q/R42Y/R54Q/S133A/S66F/T210M/V115G/Y107V/Y59L/Y89S).

Assay in all cases: biochemical
What all share (format): binding

Sequence of HLA-DR DRB1*1101 (DR11) (P01903 26-254 limits assumed, other chains not shown): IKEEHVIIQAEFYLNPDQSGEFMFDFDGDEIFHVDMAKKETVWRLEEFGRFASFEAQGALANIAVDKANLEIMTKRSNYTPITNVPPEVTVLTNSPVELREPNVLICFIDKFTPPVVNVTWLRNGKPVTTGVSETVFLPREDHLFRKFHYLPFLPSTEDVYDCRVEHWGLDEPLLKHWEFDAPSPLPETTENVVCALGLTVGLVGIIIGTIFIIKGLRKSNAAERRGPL
Sequence of HLA-DR DRB1*1302 (DR13) (P01903 26-254 limits assumed, other chains not shown): as above

REYILDLHPEPTDLF: the IC50 was greater than 33100 nM at HLA-DR DRB1*1501 (DR15) (read-out: DRBI *1501), greater than 31400 nM at HLA-DR DRB5*0101 (DR51) (read-out: DRB5 *0101) and 4150 nM at HLA-DR DRB1*1101 (DR11) (read-out: DRB1 *1101).
For KKPLNEILIRCHCQ, the IC50 came to 140 nM on HLA-DR DRB4*0101 (DR53) (read-out: DRB4 *0101), 1300 nM on HLA-DR DRB1*1101 (DR11) (read-out: DRB1 *1101) and 965 nM on HLA-DR DRB1*1302 (DR13) (read-out: DRBI *1302).
For VYQLDIQSTKEDLRV, the IC50 turned out to be 8690 nM at HLA-DR DRB5*0101 (DR51) (read-out: DRB5 *0101), 226 nM on HLA-DR DRB4*0101 (DR53) (read-out: DRB4 *0101), 7350 nM on HLA-DR DRB1*1101 (DR11) (read-out: DRB1 *1101) and 708 nM on HLA-DR DRB1*1302 (DR13) (read-out: DRBI *1302).
For the substance AALAAAAAAKAAA, the IC50 worked out at 12 nM at HLA-DR DRB1*0401 (DR4) (read-out: DRB1 *0401), 67 nM on HLA-DR DRB5*0101 (DR51) (read-out: DRB5 *0101), 2220 nM at HLA-DR DRB1*1101 (DR11) (read-out: DRB1 *1101) and 1.9 nM on HLA-DR DRB1*0101 (DR1) (read-out: DRB1 *0101).
As for DFVFADLRIVYRDGN, the IC50 on HLA-DR DRB5*0101 (DR51) (read-out: DRB5 *0101) was 8430 nM; at HLA-DR DRB4*0101 (DR53) (read-out: DRB4 *0101), 6710 nM; at HLA-DR DRB1*1101 (DR11) (read-out: DRB1 *1101), 6960 nM.
In the case of TVVYREGNPFGICKL, the IC50 is 48800 nM at HLA-DR DRB5*0101 (DR51) (read-out: DRB5 *0101), greater than 18000 nM on HLA-DR DRB1*1101 (DR11) (read-out: DRB1 *1101) and greater than 13100 nM on HLA-DR DRB1*1302 (DR13) (read-out: DRBI *1302).
With NPVVHFFKNIVT, the IC50 amounted to 23 nM on HLA-DR DRB1*1501 (DR15) (DRBI *1501) and 10000 nM against HLA-DR DRB5*0101 (DR51) (DRB5 *0101).
As to SHDLMLLRISEPAEL, the IC50 was 1100 nM on HLA-DR DRB1*1501 (DR15) (read-out: DRBI *1501), no less than 100000 nM at HLA-DR DRB5*0101 (DR51) (read-out: DRB5 *0101), 12 nM on HLA-DR DRB4*0101 (DR53) (read-out: DRB4 *0101) and 5.8 nM on HLA-DR DRB1*1302 (DR13) (read-out: DRBI *1302).
Take KVSCKGSGYTFTAYQMH: the IC50 is 50000 nM against HLA-DR DRB1*0701 (DR7) (DRB1 *0701), greater than 200000 nM on HLA-DR DRB1*1101 (DR11) (DRB1 *1101) and 5000 nM against HLA-DR DRB1*0101 (DR1) (DRB1 *0101).
MTLYQIQVMKRNQKQ: the IC50 against HLA-DR DRB1*0401 (DR4) (DRB1 *0401) came out at 117 nM; on HLA-DR DRB1*1501 (DR15) (DRBI *1501), 2430 nM; against HLA-DR DRB1*0701 (DR7) (DRB1 *0701), 31100 nM; against HLA-DR DRB5*0101 (DR51) (DRB5 *0101) it was 22 nM; at HLA-DR DRB4*0101 (DR53) (DRB4 *0101), 82 nM; on HLA-DR DRB1*1302 (DR13) (DRBI *1302) it was 323 nM. The substance further gave an IC50 at HLA-DR DRB1*0101 (DR1) (DRB1 *0101) of 1220 nM.
In the case of SVTWIGAAPLILSRI, the IC50 at HLA-DR DRB4*0101 (DR53) (read-out: DRB4 *0101) was 42 nM; on HLA-DR DRB1*1101 (DR11) (read-out: DRB1 *1101) it was 2200 nM; on HLA-DR DRB1*1302 (DR13) (read-out: DRBI *1302), 420 nM.
On to QKKYIYNLIMNTQNK, for which the IC50 at HLA-DR DRB1*0401 (DR4) (DRB1 *0401) was 24 nM; at HLA-DR DRB1*1501 (DR15) (DRBI *1501) it was 844 nM; against HLA-DR DRB1*0701 (DR7) (DRB1 *0701) it was 11900 nM; on HLA-DR DRB4*0101 (DR53) (DRB4 *0101), 87 nM; on HLA-DR DRB1*1302 (DR13) (DRBI *1302), 53 nM; against HLA-DR DRB1*0101 (DR1) (DRB1 *0101), 73 nM.
As to SAVPVYIYFNTWTTCQSIAF, the IC50 stood at 92 nM at HLA-DR DRB1*1501 (DR15) (read-out: DRBI *1501) and 20000 nM at HLA-DR DRB5*0101 (DR51) (read-out: DRB5 *0101).
As for DRTLMSAMTNLAALF, the IC50 stood at 26100 nM at HLA-DR DRB5*0101 (DR51) (read-out: DRB5 *0101), 57 nM at HLA-DR DRB4*0101 (DR53) (read-out: DRB4 *0101) and 2370 nM at HLA-DR DRB1*1101 (DR11) (read-out: DRB1 *1101).
Regarding PATYGIIVPVLTSLF, the IC50 against HLA-DR DRB1*0401 (DR4) (DRB1 *0401) was 15 nM; against HLA-DR DRB1*1501 (DR15) (DRBI *1501), 2560 nM; against HLA-DR DRB5*0101 (DR51) (DRB5 *0101), 52 nM; at HLA-DR DRB1*0101 (DR1) (DRB1 *0101), 1.03 nM.
As for SKIMKLPKLPISNGK, the IC50 against HLA-DR DRB1*1501 (DR15) (DRBI *1501) is 3570 nM; on HLA-DR DRB5*0101 (DR51) (DRB5 *0101) it was greater than 10300 nM; against HLA-DR DRB4*0101 (DR53) (DRB4 *0101), 6740 nM; on HLA-DR DRB1*1302 (DR13) (DRBI *1302), 6460 nM.
With EEDIEIIFIQEEEY, the results for the IC50 on HLA-DR DRB5*0101 (DR51) (read-out: DRB5 *0101) and on HLA-DR DRB1*1101 (DR11) (read-out: DRB1 *1101) were 46100 nM and greater than 20600 nM, respectively.
SMEYKKDFLITARKY: the IC50 on HLA-DR DRB1*1501 (DR15) (read-out: DRBI *1501) was determined as 4610 nM; on HLA-DR DRB1*1302 (DR13) (read-out: DRBI *1302) it was 3820 nM.
TEGRCLHYTVDKSKPK: the figures for the IC50 against HLA-DR DRB1*0401 (DR4) (DRB1 *0401), against HLA-DR DRB1*0701 (DR7) (DRB1 *0701) and against HLA-DR DRB1*1101 (DR11) (DRB1 *1101) were 200 nM, greater than 250000 nM and greater than 1250 nM, respectively.
With YAR(15)ASQTTLKAKT, the IC50 on HLA-DR DRB1*0401 (DR4) (read-out: DRB1 *0401) came out at 0.46 nM; at HLA-DR DRB1*0701 (DR7) (read-out: DRB1 *0701), 1200 nM; at HLA-DR DRB5*0101 (DR51) (read-out: DRB5 *0101) it was 3.6 nM; at HLA-DR DRB1*1101 (DR11) (read-out: DRB1 *1101), 3.9 nM; on HLA-DR DRB1*0101 (DR1) (read-out: DRB1 *0101), 1.5 nM.
Regarding LREYILDLHPEPTDL, the IC50 was greater than 40400 nM at HLA-DR DRB5*0101 (DR51) (read-out: DRB5 *0101) and 9830 nM at HLA-DR DRB1*1101 (DR11) (read-out: DRB1 *1101).
Consider TGYKVLVLNPSV, for which the IC50 is greater than 11400 nM at HLA-DR DRB5*0101 (DR51) (read-out: DRB5 *0101), 26 nM on HLA-DR DRB1*1101 (DR11) (read-out: DRB1 *1101) and 21 nM on HLA-DR DRB1*1302 (DR13) (read-out: DRBI *1302).
Consider (16A)RQTTLKAAA, for which the IC50 at HLA-DR DRB1*0401 (DR4) (read-out: DRB1 *0401) stood at 1.3 nM; at HLA-DR DRB5*0101 (DR51) (read-out: DRB5 *0101) it was 4000 nM; at HLA-DR DRB1*1101 (DR11) (read-out: DRB1 *1101), 77 nM.
